Patent US20240299400A1, “Transcription Factor GLI1 Inhibitors and Uses Thereof” (University of Connecticut, priority 2023, published 2024)
Like-named read-outs stand apart in the source and are kept apart here.

What was measured:
[1] = test system: GLI1 mRNA expression; experiment: RT-qPCR GLI1 mRNA expression in Sufu-KO MEFs; type: cell-based, mouse; settings: for IC50: Mus musculus, Ave ± SEM, read-out: RT-qPCR, IC50 Sufu-KO
[2] = target: T1, GLI1-ZFD (Homo sapiens, UniProt P08151); experiment: Microscale thermophoresis (MST) binding to GLI1-ZFD
T1 construct: GLI1-ZFD Expression and Purification; made in house
T1 sequence (P08151 234-388 limits assumed): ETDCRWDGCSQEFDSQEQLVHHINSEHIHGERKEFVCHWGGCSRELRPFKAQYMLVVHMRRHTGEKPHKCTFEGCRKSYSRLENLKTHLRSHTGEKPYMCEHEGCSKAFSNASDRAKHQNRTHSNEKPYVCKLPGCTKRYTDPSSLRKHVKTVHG
Procedure, shortened: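 RED-NHS–labeled recombinant GLI1 zinc-finger domain (200 nM) was mixed with compound dilutions (DMSO<5%) in 50 mM HEPES pH 8.3, 100 mM NaCl. Binding was read by microscale thermophoresis on a Monolith NT.115.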

[3] = test system: ASZ001 cells; experiment: MTS anti-proliferative assay in ASZ001 cells; type: cell-based, murine; settings: Mus musculus, ASZ001, Ave ± SEM
[4] = test system: PANC-1 (pancreatic); experiment: MTS anti-proliferative assay in PANC-1 cells; type: cell-based; settings: Homo sapiens, PANC-1; Table 8, 48 h, mean ± SEM
[5] = target: T2, CSNK1A1 (Homo sapiens, UniProt P48729); experiment: ZLyte kinase assay, CSNK1A1; type: biochemical; settings: average of three replicates
T2 construct: purchased ThermoFisher Scientific (Madison, WI, USA), contract service
Description: (§1) Kinase screening experiments. Kinase inhibition/binding experiments were performed by ThermoFisher Scientific (Madison, WI, USA) as a contract service, utilizing their default protocols [G. Yernale, A comprehensive review on the biological interest of quinoline and its derivatives. Bioorg. Med. Chem. 32 (2021) 115973]. Briefly, for ZLyte assay, compound in DMSO (100 nL), kinase buffer (2.4 μL), peptide/kinase mixture (5 μL), and ATP solution (2.5 μL) were mixed in a black 384-well plate. Following a 30 s plate shake to mix reagents, the kinase assay mixture was incubated at RT for 60 min. Following addition of the development reagent solution to each well, another 60 min incubation was performed at RT for reaction development. Fluorescent signal was recorded and subsequently analyzed.

[6] = target: T3, CSNK2A1 (Homo sapiens, UniProt P68400); experiment: ZLyte kinase assay, CSNK2A1; type: biochemical; settings: average of three replicates
T3 construct: purchased ThermoFisher Scientific (Madison, WI, USA), contract service
Description: as §1

[7] = target: T4, DYRKIA (Homo sapiens, UniProt Q13627); experiment: ZLyte kinase assay, DYRKIA; type: biochemical; settings: average of three replicates
T4 construct: purchased ThermoFisher Scientific (Madison, WI, USA), contract service
Description: as §1

[8] = target: T5, DYRK1B (Homo sapiens, UniProt Q9Y463); experiment: ZLyte kinase assay, DYRK1B; type: biochemical; settings: average of three replicates
T5 construct: purchased ThermoFisher Scientific (Madison, WI, USA), contract service
Description: as §1

[9] = target: T6, EGFR (Homo sapiens, UniProt P00533); experiment: ZLyte kinase assay, EGFR; type: biochemical; settings: average of three replicates
T6 construct: purchased ThermoFisher Scientific (Madison, WI, USA), contract service
Description: as §1

[10] = target: T7, GSK3B (Homo sapiens, UniProt P49841); experiment: ZLyte kinase assay, GSK3B; type: biochemical; settings: average of three replicates
T7 construct: purchased ThermoFisher Scientific (Madison, WI, USA), contract service
Description: as §1

[11] = target: T8, IGF1R (Homo sapiens, UniProt P08069); experiment: ZLyte kinase assay, IGF1R; type: biochemical; settings: average of three replicates
T8 construct: purchased ThermoFisher Scientific (Madison, WI, USA), contract service
Description: as §1

[12] = target: T9, MAP2K2 (Homo sapiens, UniProt P36507); experiment: ZLyte kinase assay, MAP2K2; type: biochemical; settings: average of three replicates
T9 construct: purchased ThermoFisher Scientific (Madison, WI, USA), contract service
Description: as §1

[13] = target: T10, PDGFRA (Homo sapiens, UniProt P16234); experiment: ZLyte kinase assay, PDGFRA; type: biochemical; settings: average of three replicates
T10 construct: purchased ThermoFisher Scientific (Madison, WI, USA), contract service
Description: as §1

[14] = target: T11, PRKACA (Homo sapiens, UniProt P17612); experiment: ZLyte kinase assay, PRKACA; type: biochemical; settings: average of three replicates
T11 construct: purchased ThermoFisher Scientific (Madison, WI, USA), contract service
Description: as §1

[15] = target: T12, RET (Homo sapiens, UniProt P07949); experiment: ZLyte kinase assay, RET; type: biochemical; settings: average of three replicates
T12 construct: purchased ThermoFisher Scientific (Madison, WI, USA), contract service
Description: as §1

[16] = target: T13, RPS6KB1 (Homo sapiens, UniProt P23443); experiment: ZLyte kinase assay, RPS6KB1; type: biochemical; settings: average of three replicates
T13 construct: purchased ThermoFisher Scientific (Madison, WI, USA), contract service
Description: as §1

T13 sequence (P23443 whole entry): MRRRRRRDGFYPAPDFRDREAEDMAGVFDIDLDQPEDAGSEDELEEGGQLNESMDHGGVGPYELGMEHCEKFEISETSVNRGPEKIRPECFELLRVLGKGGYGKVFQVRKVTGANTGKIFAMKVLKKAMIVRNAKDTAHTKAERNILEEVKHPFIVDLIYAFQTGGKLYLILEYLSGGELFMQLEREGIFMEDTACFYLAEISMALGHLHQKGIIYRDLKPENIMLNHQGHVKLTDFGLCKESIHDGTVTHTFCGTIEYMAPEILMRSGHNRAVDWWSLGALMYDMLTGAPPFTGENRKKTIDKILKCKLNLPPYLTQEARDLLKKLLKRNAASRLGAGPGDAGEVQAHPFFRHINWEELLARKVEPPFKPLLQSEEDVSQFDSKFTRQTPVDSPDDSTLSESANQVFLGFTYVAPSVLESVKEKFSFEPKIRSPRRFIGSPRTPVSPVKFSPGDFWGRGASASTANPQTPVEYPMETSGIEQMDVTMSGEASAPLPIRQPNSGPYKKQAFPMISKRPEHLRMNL
T3 sequence (P68400 whole entry): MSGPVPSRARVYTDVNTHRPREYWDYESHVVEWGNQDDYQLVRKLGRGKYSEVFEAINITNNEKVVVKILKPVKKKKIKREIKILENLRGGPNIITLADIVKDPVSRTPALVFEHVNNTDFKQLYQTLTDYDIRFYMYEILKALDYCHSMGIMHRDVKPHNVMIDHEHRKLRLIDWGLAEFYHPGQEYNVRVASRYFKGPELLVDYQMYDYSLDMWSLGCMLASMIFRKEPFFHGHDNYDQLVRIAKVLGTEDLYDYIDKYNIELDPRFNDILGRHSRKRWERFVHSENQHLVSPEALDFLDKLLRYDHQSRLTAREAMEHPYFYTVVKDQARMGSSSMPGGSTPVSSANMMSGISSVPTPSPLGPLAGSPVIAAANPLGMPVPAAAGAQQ
T8 sequence (P08069 31-1367): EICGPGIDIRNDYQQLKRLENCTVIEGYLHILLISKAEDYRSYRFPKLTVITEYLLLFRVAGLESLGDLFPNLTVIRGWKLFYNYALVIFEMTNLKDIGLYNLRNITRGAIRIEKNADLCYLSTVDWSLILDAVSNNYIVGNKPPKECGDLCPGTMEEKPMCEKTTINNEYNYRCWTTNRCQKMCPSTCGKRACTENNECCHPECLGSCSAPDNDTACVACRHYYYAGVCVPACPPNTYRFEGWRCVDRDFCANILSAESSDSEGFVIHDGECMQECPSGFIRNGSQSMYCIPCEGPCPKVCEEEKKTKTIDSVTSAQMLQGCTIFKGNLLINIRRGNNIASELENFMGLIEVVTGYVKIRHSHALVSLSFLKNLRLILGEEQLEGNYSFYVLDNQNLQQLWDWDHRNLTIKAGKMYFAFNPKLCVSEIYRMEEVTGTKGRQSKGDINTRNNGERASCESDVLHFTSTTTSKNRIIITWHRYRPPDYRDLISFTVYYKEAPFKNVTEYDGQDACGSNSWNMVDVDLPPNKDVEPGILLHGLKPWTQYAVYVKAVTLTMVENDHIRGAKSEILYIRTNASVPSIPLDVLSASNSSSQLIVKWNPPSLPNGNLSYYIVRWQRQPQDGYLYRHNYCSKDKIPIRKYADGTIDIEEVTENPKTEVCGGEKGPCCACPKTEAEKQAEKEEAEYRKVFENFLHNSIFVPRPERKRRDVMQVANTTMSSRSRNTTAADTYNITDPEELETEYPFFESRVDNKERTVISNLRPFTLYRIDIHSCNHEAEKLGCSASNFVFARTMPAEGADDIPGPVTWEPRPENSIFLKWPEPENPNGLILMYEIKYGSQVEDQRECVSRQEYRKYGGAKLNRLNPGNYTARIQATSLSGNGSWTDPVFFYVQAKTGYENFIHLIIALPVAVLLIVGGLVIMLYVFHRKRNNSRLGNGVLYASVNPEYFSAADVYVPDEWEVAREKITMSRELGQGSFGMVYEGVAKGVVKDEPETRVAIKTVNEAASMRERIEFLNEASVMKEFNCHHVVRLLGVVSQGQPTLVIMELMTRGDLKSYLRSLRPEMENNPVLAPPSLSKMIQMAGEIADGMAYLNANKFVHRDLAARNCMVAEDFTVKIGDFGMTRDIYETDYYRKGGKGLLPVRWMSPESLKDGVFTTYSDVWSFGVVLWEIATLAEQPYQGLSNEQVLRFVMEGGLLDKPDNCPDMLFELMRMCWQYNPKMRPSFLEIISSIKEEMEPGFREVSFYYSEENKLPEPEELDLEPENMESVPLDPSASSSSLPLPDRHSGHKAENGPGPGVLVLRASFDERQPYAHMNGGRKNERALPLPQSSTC
T6 sequence (P00533 25-1210): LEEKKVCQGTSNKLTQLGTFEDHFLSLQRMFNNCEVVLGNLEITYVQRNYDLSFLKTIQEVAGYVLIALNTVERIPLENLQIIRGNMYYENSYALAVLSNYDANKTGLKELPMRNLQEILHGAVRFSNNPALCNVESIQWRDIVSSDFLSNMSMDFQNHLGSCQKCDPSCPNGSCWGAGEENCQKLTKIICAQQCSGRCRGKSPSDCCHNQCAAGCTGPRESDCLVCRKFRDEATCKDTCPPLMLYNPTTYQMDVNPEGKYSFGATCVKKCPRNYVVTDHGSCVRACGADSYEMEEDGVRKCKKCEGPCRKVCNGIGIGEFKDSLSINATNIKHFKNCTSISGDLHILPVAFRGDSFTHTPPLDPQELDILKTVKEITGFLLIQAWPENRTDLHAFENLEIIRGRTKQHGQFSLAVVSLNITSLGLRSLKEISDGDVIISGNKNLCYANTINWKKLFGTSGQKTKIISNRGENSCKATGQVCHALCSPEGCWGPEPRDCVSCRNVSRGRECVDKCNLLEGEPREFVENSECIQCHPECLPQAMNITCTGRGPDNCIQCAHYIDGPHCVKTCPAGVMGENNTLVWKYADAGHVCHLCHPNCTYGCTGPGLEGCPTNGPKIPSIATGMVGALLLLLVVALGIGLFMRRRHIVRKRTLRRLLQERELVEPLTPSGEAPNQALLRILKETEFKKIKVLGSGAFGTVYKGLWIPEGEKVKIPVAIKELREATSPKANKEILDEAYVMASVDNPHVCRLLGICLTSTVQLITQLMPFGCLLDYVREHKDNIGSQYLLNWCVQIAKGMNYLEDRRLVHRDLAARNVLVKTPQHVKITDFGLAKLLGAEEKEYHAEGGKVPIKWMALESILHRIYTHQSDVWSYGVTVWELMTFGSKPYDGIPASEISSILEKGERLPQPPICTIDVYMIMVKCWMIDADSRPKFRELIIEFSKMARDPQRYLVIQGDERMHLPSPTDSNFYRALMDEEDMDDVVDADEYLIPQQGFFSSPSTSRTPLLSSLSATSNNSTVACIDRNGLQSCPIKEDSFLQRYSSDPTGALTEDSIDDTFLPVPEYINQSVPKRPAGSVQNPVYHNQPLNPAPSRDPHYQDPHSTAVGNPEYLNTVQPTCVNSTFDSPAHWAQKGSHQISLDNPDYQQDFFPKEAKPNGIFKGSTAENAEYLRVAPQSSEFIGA
T12 sequence (P07949 29-1114): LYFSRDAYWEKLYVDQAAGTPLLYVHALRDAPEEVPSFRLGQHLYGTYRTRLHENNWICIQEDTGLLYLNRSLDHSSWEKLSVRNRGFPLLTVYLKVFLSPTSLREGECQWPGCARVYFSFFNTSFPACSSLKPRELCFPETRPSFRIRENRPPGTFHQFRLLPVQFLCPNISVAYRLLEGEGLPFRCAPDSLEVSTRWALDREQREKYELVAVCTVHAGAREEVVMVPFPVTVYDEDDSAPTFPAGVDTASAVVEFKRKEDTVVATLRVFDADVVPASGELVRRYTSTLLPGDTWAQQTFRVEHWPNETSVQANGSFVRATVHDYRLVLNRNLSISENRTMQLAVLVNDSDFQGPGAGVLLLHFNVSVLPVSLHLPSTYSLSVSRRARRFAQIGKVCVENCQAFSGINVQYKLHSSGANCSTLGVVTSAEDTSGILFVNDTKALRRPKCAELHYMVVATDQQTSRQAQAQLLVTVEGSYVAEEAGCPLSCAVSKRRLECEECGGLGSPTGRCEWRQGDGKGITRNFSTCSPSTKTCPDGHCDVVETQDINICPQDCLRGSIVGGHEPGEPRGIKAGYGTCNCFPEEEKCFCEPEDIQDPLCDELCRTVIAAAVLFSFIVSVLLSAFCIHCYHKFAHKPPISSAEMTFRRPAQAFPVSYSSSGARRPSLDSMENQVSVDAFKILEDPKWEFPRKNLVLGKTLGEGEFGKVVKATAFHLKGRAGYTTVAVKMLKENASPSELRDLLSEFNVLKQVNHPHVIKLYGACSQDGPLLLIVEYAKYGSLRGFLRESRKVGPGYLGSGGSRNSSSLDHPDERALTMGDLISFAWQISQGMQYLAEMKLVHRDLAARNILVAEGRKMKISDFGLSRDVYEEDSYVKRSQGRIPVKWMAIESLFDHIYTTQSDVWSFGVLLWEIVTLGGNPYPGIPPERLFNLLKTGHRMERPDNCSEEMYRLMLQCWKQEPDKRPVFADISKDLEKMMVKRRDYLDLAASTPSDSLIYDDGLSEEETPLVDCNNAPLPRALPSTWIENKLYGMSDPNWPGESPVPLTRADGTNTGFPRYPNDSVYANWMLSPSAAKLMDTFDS
T2 sequence (P48729 whole entry): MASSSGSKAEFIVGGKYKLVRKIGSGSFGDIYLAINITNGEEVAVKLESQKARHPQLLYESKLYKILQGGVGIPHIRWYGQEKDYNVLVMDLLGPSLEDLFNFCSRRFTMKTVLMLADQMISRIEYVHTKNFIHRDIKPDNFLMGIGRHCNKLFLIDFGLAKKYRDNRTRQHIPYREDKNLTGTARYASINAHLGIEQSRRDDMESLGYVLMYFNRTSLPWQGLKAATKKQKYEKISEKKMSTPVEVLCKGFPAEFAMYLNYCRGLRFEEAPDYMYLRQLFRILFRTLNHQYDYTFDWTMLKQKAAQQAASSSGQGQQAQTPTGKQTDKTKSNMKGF

Row | Compound | IC50 ([1]; Table 7, GLI1 mRNA) [µM] | Kd ([2]; Table 7, Ave ± SEM) [µM] | GI50 ([3]; Table 7, 48 h) [µM] | GI50 [4] [µM] | inhibition at 1 µM [5] [%] | inhibition at 1 µM [6] [%] | inhibition at 1 µM [7] [%] | inhibition at 1 µM [8] [%] | inhibition at 1 µM [9] [%] | inhibition at 1 µM [10] [%] | inhibition at 1 µM [11] [%] | inhibition at 1 µM [12] [%] | inhibition at 1 µM [13] [%] | inhibition at 1 µM [14] [%] | inhibition at 1 µM [15] [%] | inhibition at 1 µM [16] [%] | further results
1 | Cc1ccc2ccc(C(Nc3ccccn3)c3ccncc3)c(O)c2n1 (centres unmarked) [Compound 39, 7-((Pyridin-4-yl)(pyridin-2-ylamino)methyl)-2-methylquinolin-8-ol] | 2.9 ± 1.9 | 9.1 ± 1.5 | 3.9 ± 1.2 | 0.83 ± 0.1 | 3 | 2 | 6 | 3 | 2 | 1 | 12 | 14 | 0 | 6 | 8 | 0 | –
2 | Cc1ccc2ccc(C(Nc3ccccn3)c3ccc(N4CCCC4=O)cc3)c(O)c2n1 (centres unmarked) [Compound 48, 7-((4-(2-Oxopyrrolidin-1-yl)phenyl)(pyridin-2-ylamino)methyl)-2-methylquinolin-8-ol] | 0.82 ± 0.27 | 8 ± 3.1 | 19.6 ± 3.6 | 23.2 ± 4.3 | 6 | 2 | 4 | 5 | 2 | 4 | 9 | 16 | 1 | 7 | 5 | -1 | –
3 | CCN(CC)c1ccc(C(Nc2ccccn2)c2ccc3ccc(C)nc3c2OC)cc1 (centres unmarked) [Compound 20, N-((4-Diethylaminophenyl)(8-methoxy-2-methylquinolin-7-yl)methyl)pyridin-2-amine] | – | – | – | > 100 | 4 | 5 | 4 | 3 | -2 | -1 | 9 | 12 | 0 | 4 | 6 | -2 | anti-GLI1 activity in Sufu-KO cells (in words) [1]: inactive; IC50 ([1]; Table 5, GLI1 mRNA): > 25 µM; binding to GLI1 (in words) ([2]; MST binding assay): does not bind to GLI1; Kd ([2]; Table 5, Ave ± SEM): > 125 µM; GI50 ([3]; Table 5, 48 h): > 100 µM
